According to US20090016989A1, “ANTIBODIES TO HUMAN SOMATOSTATIN RECEPTOR AND METHODS OF USE” (priority 2007, published 2009):

How the values were obtained:
Type in all cases: cell-based, human
[1] = system: BON cells; experiment: MTS cell proliferation assay, growth doubling time
Procedure: The effects of anti-hSSTR subtype 2 and anti-hSSTR subtype 5 antibodies on cell proliferation were tested using CellTiter 96® Aqueous One Solution Cell Proliferation Assay (MTS) (Promega, Cat#G3581). The assay was performed to measure the growth doubling time for BON cells in vitro (FIG. 3, growth doubling time in hours is presented on the Y-axis). The growth doubling time for BON cells following treatment with rabbit IgG was around 28 to 30 hours (similar to vehicle alone). […] Cell growth was detected at 490 nm (colorimetric detection) by using instrument Victor 3V (Perkin Elmer) once every 24 hours in the duration of 96 hours.
(§1) The resulting maximal suppression in hours (20 hours) is designated as 100% of growth suppression. The difference measured in doubling time detected between experimental samples and untreated samples divided by the maximal suppression yields the percent growth suppression.
BON cells were seeded, grown and maintained in F12 HAM (Invitrogen, Cat#31765035)/D-MEM (Invitrogen, Cat#10567-014) (50/50) with 10% certified fetal bovine serum (FBS) (Invitrogen, Cat#16000-044) in 96-well cell culture dishes (Costar, Cat# 3590) at a density of 2500 cells/well. […] Cell growth was detected at 490 nm (colorimetric detection) by using instrument Victor 3V (Perkin Elmer) once every 24 hours in the duration of 96 hours.

[2] = system: shSSTR subtype 2-BON cells; experiment: Growth suppression in tetracycline-controlled shRNA knock-down cells; details: sh-hSSTR subtype 2-BON; FIG. 5
Procedure: To validate that cell growth inhibition is caused by the anti-hSSTR antibody in a subtype specific manner, BON cells were stably transfected with plasmids carrying short hairpin RNA shSSTR subtype 2 or shSSTR subtype 5 in which the expression of the shRNAs were under the control of tetracycline. Sh-hSSTR subtype 2 and sh-hSSTR subtype 5 destabilize the target receptor's messenger RNA and, consequently, knock down the expression of the target gene.
as §1
shSSTR BON cells were used to test the specificity of anti-hSSTR subtype 2 and anti-hSSTR subtype 5 antibodies in suppressing BON cell growth. […] The left panels of FIG. 6a and FIG. 6B are the experimental group, while the right panels are the negative control. The Y-axis of each of FIG. 6A and FIG. 6B indicates the growth suppression outcome in %, while the X-axis of each of FIG. 6A and FIG. 6B indicates the increasing concentrations of the antibodies added in each sample. […]

[3] = system: BON cells; experiment: Serotonin EIA, serotonin release
Procedure: A serotonin ([…]) assay was performed using Serotonin EIA (Biosource, Cat# KAPL10-0900) to measure serotonin release by BON cells over a 48-hour period with or without treatment. […] After 24 hours, the BON cells were subjected to six different daily treatments (at maximum dosages) and grown in FBS-free cell growth media for 2 days in a sterile tissue culture chamber at 37° C. with 6% CO2. These six treatments were: […] The anti-hSSTR Abs (4)-(6) were antibodies produced in the experiment described in Example 1. At the end of each treatment, 1× Halt Protease Inhibitor cocktail (Pierce, Cat# 78415) was immediately added to each sample and the media was collected from each sample and used for Serotonin detection. Next, cells were dissociated from the plate using 2 ml of 1× trypsin-EDTA (Invitrogen Cat#2520) in cell growth media and incubated at 37° C. with 6% CO2 for 5 minutes. Subsequently, an additional 8 ml of cell growth media was added to neutralize trypsin-EDTA, and subjected to 1000 rpm at 4° C. in 15 ml Falcon tubes using Beckman table top centrifuge. Guava Technologies PCA-96 instrument (tabletop flow cytometer) and Viacount flex reagent (Guava Technologies, Cat# 4500-0100) were then used to determine the number of cells for the abovementioned treatments. The results were as follows: […] […]

C[C@@H](O)[C@@H]1NC(=O)[C@H](CCCCN)NC(=O)[C@@H](Cc2c[nH]c3ccccc23)NC(=O)[C@H](Cc2ccccc2)NC(=O)[C@@H](NC(=O)[C@H](N)Cc2ccccc2)CSSC[C@@H](C(=O)N[C@H](CO)[C@@H](C)O)NC1=O [octreotide]
approximate EC50 (growth) ([1]; octreotide 0.5, 1, 10 to 50 nM, FIG. 5): single nM
doubling time ([1]; saturating octreotide (50 nM)): ~50 h
growth doubling time under octreotide compared to BON cells [2]: did not change
serotonin level in the media ([3]; 48-hour period, 5 μg/ml antibody or rabbit IgG, 100 nM octreotide, four independent experiments): 2126 attogram/cell
decrease of serotonin release against control ([3]; 48 hours, antibodies against rabbit IgG, octreotide against vehicle (PBS)): 2.7 fold
